According to PMC3994669 (Cancer cell, 2014):
Where two headings read alike, the source gives them in different places. *1 amine or outer side, *2 acyl side, *3 side chain or, on linkers, in order; H or OH if unused. Where a SMILES comes first, the peptide text is derived from it. Bridges are numbered along the chain shown (N, C = ends). Roman numbers before positions name the chains, in order. [ ]: non-standard residue; d: D form. Actinocin(9to1) = Cc1c2oc3c(C)ccc(C(=O)[*:1])c3nc-2c(C(=O)[*:2])c(N)c1=O; NMeV = CN[C@H](C(=O)O)C(C)C; Sar = CNCC(=O)O

Columns and labels:
[1] = tested on: Myc1 mouse G3 MB neurospheres; test: Dose-response proliferation assay; format: cell-based; settings: for EC50: Mus musculus, 72 h, read-out: EC50 Myc1; for efficacy against Myc1: 72 hr treatment
[2] = tested on: Trp53-null neurospheres; test: Dose-response proliferation assay on control Trp53-null neurospheres; format: cell-based, mouse; settings: for EC50: Mus musculus, 72 h, read-out: EC50 Trp53-null; for efficacy against Trp53-null: 72 hr treatment
[3] = tested on: BJ; test: Dose-response proliferation assay on BJ control fibroblasts; format: cell-based; settings: Homo sapiens, read-out: EC50 BJ
[4] = tested on: HepG2; test: Dose-response proliferation assay on HepG2 control cells; format: cell-based; settings: Homo sapiens, HepG2, read-out: EC50 HepG2
[5] = tested on: H3K27me3; test: H3K27me3 immunoblotting of Myc1 cell lysates; format: cell-based, mouse; settings: Myc1, 72 hr; 0.5 μM decitabine, 40 nM pemetrexed
[6] = tested on: Myc1 neurospheres; test: In vitro wash-out experiments on Myc1; format: cell-based; settings: Mus musculus
[7] = tested on: four additional mouse G3 MB lines; test: Dose-response on four additional mouse G3 MB lines; format: cell-based; settings: four independently derived mouse G3 MB lines
[8] = format: in vivo; settings: murine plasma, single IV injection pemetrexed 200 mg/kg, gemcitabine 60 mg/kg
[9] = tested on: Myc2 mouse G3 MB; test: Survival of mice with Myc2 G3 MB implants; settings: treatment at days 4 and 11; vehicle 11 days
[10] = tested on: mouse G3 MB tumor cells; test: Cell death; format: cell-based; settings: for cell death by Annexin V staining: tumor cells in vitro
[11] = tested on: human neural stem cells H9; test: Cell viability of human neural stem cells H9; format: cell-based; settings: H9, 72 h, read-out: EC50 H9 cells
[12] = tested on: TB-12-5950 G3 MB PDX neurospheres; test: Cell viability of G3 MB PDX TB-12-5950 neurospheres; format: cell-based; settings: Homo sapiens, 72 h, read-out: EC50 TB-12-5950
[13] = tested on: OA-2012-1 G3 MB PDX neurospheres; test: Cell viability of G3 MB PDX OA-2012-1 neurospheres; format: cell-based; settings: Homo sapiens, 72 h, read-out: EC50 OA-2012-1
[14] = mouse, in vivo
[15] = tested on: SHH MB-derived line; test: Dose-response on SHH MB-derived line; format: cell-based, mouse
[16] = tested on: Myc1 mouse G3 MB; test: Survival of mice with cortical Myc1 G3 MB implants; format: in vivo
[17] = read-out: EC50 wash-out, 1 hr drug exposure, read 72 hr after
[18] = read-out: EC50 wash-out, 10 hr drug exposure, read 72 hr after
[19] = read-out: EC50 wash-out, 24 hr drug exposure, read 72 hr after

| EC50 [4] | SMILES | EC50 [1] | EC50 [2] | other results |
| --- | --- | --- | --- | --- |
| 11000 nM | COc1cc(NS(C)(=O)=O)ccc1Nc1c2ccccc2nc2ccccc12 [Amsacrine] | 160 nM | 550 nM | EC50 [3]: 13000 nM |
|  | N=c1ccn2c(n1)O[C@H]1[C@H](O)[C@@H](CO)O[C@H]12 [Ancitabine] | 31 nM | 550 nM |  |
| 26 nM | CC(C)C[C@H](NC(=O)[C@H](Cc1ccccc1)NC(=O)c1cnccn1)B(O)O [Bortezomib] | 6.3 nM | 2.7 nM | EC50 [3]: 23 nM |
| 920 nM | COCc1c(C(C)C)nc(C(C)C)c(/C=C/[C@@H](O)C[C@@H](O)CC(=O)O)c1-c1ccc(F)cc1 [Cerivastatin] | 770 nM | 2500 nM |  |
| 3300 nM | Nc1nc(Cl)nc2c1ncn2[C@H]1C[C@H](O)[C@@H](CO)O1 [Cladrabine] | 4.3 nM | 250 nM | EC50 [3]: 1400 nM |
|  | Nc1nc(Cl)nc2c1ncn2[C@@H]1O[C@H](CO)[C@@H](O)[C@@H]1F [Clofarabine] | 150 nM | 340 nM |  |
|  | CC1(C)N=C(N)N=C(N)N1c1ccc(Cl)cc1 [Cycloguanil] | 110 nM | 180 nM |  |
| 78 nM | Nc1ccn([C@@H]2O[C@H](CO)[C@@H](O)[C@@H]2O)c(=O)n1 [Cytarabine] | 83 nM | 200 nM |  |
|  | Nc1ncn([C@H]2C[C@H](O)[C@@H](CO)O2)c(=O)n1 [Decitabine] | 1300 nM | 32 nM | efficacy against Myc1 [1]: 100%; efficacy against Trp53-null [2]: ≤ 35%; H3K27me3 levels [5]: significantly decreased; EC50 [6, 17]: ~2400 nM; EC50 [6, 18]: ~920 nM; EC50 [6, 19]: ~500 nM; potency and efficacy compared to Myc1 [7]: comparable potency and efficacy |
| 580 nM | COc1cccc2c1C(=O)c1c(O)c3c(c(O)c1C2=O)C[C@@](O)(C(=O)CO)C[C@@H]3O[C@H]1C[C@H](N)[C@H](O)[C@H](C)O1 [Doxorubicin] | 28 nM | 110 nM | EC50 [3]: 140 nM |
|  | COc1cc([C@@H]2c3cc4c(cc3[C@@H](O[C@@H]3O[C@@H]5CO[C@@H](C)O[C@H]5[C@H](O)[C@H]3O)[C@H]3COC(=O)[C@H]23)OCO4)cc(OC)c1O [Etoposide] | 240 nM | 46 nM |  |
|  | O=c1[nH]c(=O)n([C@H]2C[C@H](O)[C@@H](CO)O2)cc1F [Floxuridine] | 1.6 nM | 0.1 nM |  |
|  | O=c1[nH]cc(F)c(=O)[nH]1 [Fluorouracil] | 360 nM | 220 nM |  |
|  | CC(C)n1c(/C=C/C(O)CC(O)CC(=O)O)c(-c2ccc(F)cc2)c2ccccc21 (centres unmarked) [Fluvastatin] | 4500 nM |  |  |
|  | Nc1ccn([C@@H]2O[C@H](CO)[C@@H](O)C2(F)F)c(=O)n1 [Gemcitabine] | 2.1 nM | 0.32 nM | clearance relative to previously published reports [8]: around 2 fold; median survival [9]: 26 days; efficacy against Myc1 [1]: 100%; histone 2AX (H2AX) foci ([10]; 1 hr treatment at 5 nM): induced histone 2AX (H2AX) foci; cell death by Annexin V staining [10]: induced cell death; efficacy against Trp53-null [2]: ≤ 63%; EC50 [11]: 1.5 nM; EC50 [12]: 5.1 nM; EC50 [13]: 11 nM; EC50 [6, 17]: 44 nM; EC50 [6, 18]: 13 nM; EC50 [6, 19]: 3.8 nM; tolerability [14]: well tolerated; fold less sensitive compared to Myc1 [15]: greater than 5 fold; potency and efficacy compared to Myc1 [7]: comparable potency and efficacy; increase in median survival ([16]; two doses of gemcitabine 60 mg/kg at days 2 and 9, vs vehicle): 11 days |
| 13000 nM | CC[C@H](C)C(=O)O[C@H]1C[C@@H](C)C=C2C=C[C@H](C)[C@H](CC[C@@H]3C[C@@H](O)CC(=O)O3)[C@H]21 [Lovastatin] | 4000 nM | 2100 nM |  |
|  | CN(Cc1cnc2nc(N)nc(N)c2n1)c1ccc(C(=O)N[C@@H](CCC(=O)O)C(=O)O)cc1 [Methotrexate] | 5.2 nM | 150 nM |  |
|  | Nc1nc2[nH]cc(CCc3ccc(C(=O)N[C@@H](CCC(=O)O)C(=O)O)cc3)c2c(=O)[nH]1 [Pemetrexed] | 35 nM | 15000 nM | clearance relative to previously published reports [8]: around 2 fold; median survival [9]: 28 days; cell death by Annexin V staining [10]: induced cell death; EC50 [11]: 290 nM; EC50 [12]: 160 nM; H3K27me3 levels [5]: no effect; EC50 [13]: 100 nM; EC50 [6, 17]: 1200 nM; EC50 [6, 18]: 500 nM; EC50 [6, 19]: 180 nM; tolerability [14]: well tolerated; sensitivity compared to Myc1 [15]: as sensitive to pemetrexed as Myc1; potency and efficacy compared to Myc1 [7]: comparable potency and efficacy; increase in median survival ([16]; one dose of pemetrexed 200 mg/kg at day 3, vs vehicle): 3 days; increase in median survival ([16]; two doses of pemetrexed 200 mg/kg at days 3 and 10, vs vehicle): 7 days |
| 5000 nM | O=C(O)C[C@H](O)C[C@H](O)/C=C/c1c(C2CC2)nc2ccccc2c1-c1ccc(F)cc1 [Pitavastatin] | 3500 nM |  |  |
|  | CCc1nc(N)nc(N)c1-c1ccc(Cl)cc1 [Pyrimethamine] | 4900 nM | 870 nM |  |
|  | Cc1nc2ccc(CN(C)c3ccc(C(=O)N[C@@H](CCC(=O)O)C(=O)O)s3)cc2c(=O)[nH]1 [Raltitrexed] | 3 nM | 340 nM |  |
|  | CC(C)c1nc(N(C)S(C)(=O)=O)nc(-c2ccc(F)cc2)c1/C=C/[C@@H](O)C[C@@H](O)CC(=O)O [Rosuvastatin] | 2600 nM |  |  |
| 9400 nM | CCC(C)(C)C(=O)O[C@H]1C[C@@H](C)C=C2C=C[C@H](C)[C@H](CC[C@@H]3C[C@@H](O)CC(=O)O3)[C@H]21 [Simvastatin] | 3000 nM |  | EC50 [3]: 5800 nM |
| 11000 nM | Nc1nc2nc[nH]c2c(=S)[nH]1 [Thioguanine] | 440 nM | 800 nM |  |
| 90 nM | CC[C@@]1(O)C(=O)OCc2c1cc1n(c2=O)Cc2cc3c(CN(C)C)c(O)ccc3nc2-1 [Topotecan] | 75 nM | 180 nM |  |
|  | O=c1[nH]c(=O)n([C@H]2C[C@H](O)[C@@H](CO)O2)cc1C(F)(F)F [Trifluridine] | 38 nM | 2.9 nM |  |
|  | COc1cc(NCc2ccc3nc(N)nc(N)c3c2C)cc(OC)c1OC [Trimetrexate] | 35 nM | 4.7 nM |  |
|  | CC[C@]1(O)C[C@@H]2CN(CCc3c([nH]c4ccccc34)[C@@](C(=O)OC)(c3cc4c(cc3OC)N(C)[C@H]3[C@@](O)(C(=O)OC)[C@H](OC(C)=O)[C@]5(CC)C=CCN6CC[C@]43[C@@H]65)C2)C1 [Vinblastine] | 12 nM | 15 nM |  |
|  | CC[C@]1(O)C[C@H]2CN(CCc3c([nH]c4ccccc34)[C@@](C(=O)OC)(c3cc4c(cc3OC)N(C=O)[C@H]3[C@@](O)(C(=O)OC)[C@H](OC(C)=O)[C@]5(CC)C=CCN6CC[C@]43[C@@H]65)C2)C1 [Vincristine] | 9.4 nM | 10 nM | toxicity in mice [14]: intolerable toxicity |

| SMILES | EC50 [4] | EC50 [1] | EC50 [2] | other results |
| --- | --- | --- | --- | --- |
| Cc1c2oc3c(C)ccc(C(=O)N[C@@H]4C(=O)N[C@H](C(C)C)C(=O)N5CCC[C@H]5C(=O)N(C)CC(=O)N(C)[C@@H](C(C)C)C(=O)O[C@@H]4C)c3nc-2c(C(=O)N[C@@H]2C(=O)N[C@H](C(C)C)C(=O)N3CCC[C@H]3C(=O)N(C)CC(=O)N(C)[C@@H](C(C)C)C(=O)O[C@@H]2C)c(N)c1=O [Dactinomycin] (I: T[dV]P[Sar][NMeV] / II: T[dV]P[Sar][NMeV]; ester I:1-I:C, II:1-II:C; linker I:N-II:N via Actinocin(9to1)) | 8.4 nM | 0.9 nM | 2.4 nM |  |
| COc1cccc2c1C(=O)c1c(O)c3c(c(O)c1C2=O)C[C@@](O)(C(C)=O)C[C@@H]3O[C@H]1C[C@H](N)[C@H](O)[C@H](C)O1 [Daunorubicin] | 1700 nM | 7.5 nM | 36 nM | EC50 [3]: 100 nM |
| COC(=O)Nc1nc2ccc(C(=O)c3cccs3)cc2[nH]1 [Nocodazole] | 15 nM | 110 nM | 94 nM |  |
| COc1cc([C@@H]2c3cc4c(cc3[C@H](O)[C@H]3COC(=O)[C@H]23)OCO4)cc(OC)c1OC [Podofilox] | 3.9 nM | 6.4 nM | 7.4 nM |  |
